≈ marks a conversion by molar mass, not a printed value.
Key:
Pythium ultimum [1] = assay: Fungitoxicity assay against Pythium ultimum (in vitro, mycelial dry weight); assay type: cell-based; conditions: Globisporangium ultimum, 48 hours at 25° C., read-out: Pythium EC50
Procedure: The compounds of Examples 1-20 were tested in vitro for fungicidal activity and phytotoxicity. A. The compounds were tested in vitro for fungicidal activity against Pythium ultimum, Botrytis cinerea and Venturia inaequalis. Fungitoxicity assay against Pythium ultimum: A dilution series of test compound was prepared in dimethylsulfoxide, and 0.1 milliliter (ml) of each dilution was added to 19.9 ml of a liquid asparagine-sucrose broth ([…]. and Katznelson, K., 1971, Can. J. […] Each plate was inoculated with a mycelial plug, 7 millimeters (mm) in diameter, taken from the growing edge of a culture of Pythium ultimum grown on potato dextrose agar. Two replicate plates were used for each treatment. The increase in mycelial dry weight was determined after growth for 48 hours at 25° C. with shaking on a gyrotary shaker at 60 revolutions per minute (rpm). EC50 values were calculated from dose response curves. As used herein, the terminology "EC50" means the concentration of test compound required to inhibit growth by 50% as compared to a control lacking the test compound. Results of the testing for fungicidal activity against the above named fungi are set forth below in Table 3 as Pythium EC50 (ppm), Botrytis EC50 (ppm) and Venturia MIC (ppm), respectively.

[2] = Tobacco root assay for phytotoxicity (in vitro root elongation); conditions: 7 days, 27° C., read-out: Tob. EC50
Procedure: The compounds of Examples 1-20 were tested in vitro for fungicidal activity and phytotoxicity.
B. The compounds were tested in vitro for phytotoxicity in a tobacco root elongation assay.
Tobacco root assay for Phytotoxicity:
A dilution series of test compound was prepared in dimethylsulfoxide and 20 ul of each dilution was added to 20 ml of molten nutrient medium, consisting of Murashige and Skoog salt base, 2% sucrose and 1% agar, to give the desired concentrations of test compound. The mixtures were poured immediately into 9 cm diameter petri dishes. Surface-sterilized tobacco seeds were placed on each plate (20 seeds per plate) and the plates incubated in a vertical position in a 27° C. incubator with a 16 hour photoperiod. After 7 days the mean root lengths were calculated, and EC50 values determined from dose response curves.
Results of the tobacco root assay are set forth below in Table 3 as Tob. EC50 (ppm).

Botrytis cinerea [3] = assay: Fungitoxicity assay against Botrytis cinerea (in vitro, colony diameter); assay type: cell-based; conditions: 48 hours at 25° C., read-out: Botrytis EC50
Procedure: The compounds of Examples 1-20 were tested in vitro for fungicidal activity and phytotoxicity. A. The compounds were tested in vitro for fungicidal activity against Pythium ultimum, Botrytis cinerea and Venturia inaequalis. Fungitoxicity assay against Botrytis cinerea: […] The mixtures were poured immediately into 9 centimeter (cm) diameter petri dishes. Two replicate plates were used for each treatment. Each plate was inoculated with a 7 mm diameter plug taken from the growing edge of a 5 day old culture of B. cinerea on potato dextrose agar. […] Results of the testing for fungicidal activity against the above named fungi are set forth below in Table 3 as Pythium EC50 (ppm), Botrytis EC50 (ppm) and Venturia MIC (ppm), respectively.

Venturia inaequalis = assay: Fungitoxicity assay against Venturia inaequalis (in vitro, microtiter MIC); assay type: cell-based; conditions: 168 h, minimum inhibitory concentration, 7 days at 25° C.
Procedure: The compounds of Examples 1-20 were tested in vitro for fungicidal activity and phytotoxicity. A. The compounds were tested in vitro for fungicidal activity against Pythium ultimum, Botrytis cinerea and Venturia inaequalis. Fungitoxicity assay against Venturia inaequalis: Test compounds were dissolved in dimethylsulfoxide at 1 milligram per milliliter (mg/ml), and 50 ul added to 950 ul of yeast extract-dextrose medium (YED, 0.4% yeast extract, 2% dextrose) to give 50 part per million (ppm) solutions. Minimum inhibitory concentration (MIC) values were determined using a microtiter assay with twofold serial dilutions of the prepared 50 ppm solutions (100 ul) in YED medium. Inoculum consisted of a spore suspension of V. inaequalis in YED medium at 2.5×10^5 spores per ml. […] Results of the testing for fungicidal activity against the above named fungi are set forth below in Table 3 as Pythium EC50 (ppm), Botrytis EC50 (ppm) and Venturia MIC (ppm), respectively.

cucumber plants = assay: In vivo phytotoxic activity, foliar spray, cucumber; set-up: key: +: indicating presence of a plant growth regulatory effect as compared to a control to which a solvent mixture (acetone/water/methanol) lacking the test compound was applied; 0: A zero indicates no apparent effect; conditions: foliar spray 2200 g/Ha, seven days after application
Procedure: (§1) The compounds of Examples 1 and 12 were tested in vivo for phytotoxic activity by applying the compounds to the foliage of cucumber, tomato, bean, lettuce and strawberry plants as a spray at a rate of 2200 g/Ha. The plants were evaluated seven days after spray application of the compounds.
(§2) Phototoxicity scores are set forth below in Table 6. The phytotoxicity scores use a symbol, "+", indicating presence of a plant growth regulatory effect as compared to a control to which a solvent mixture (acetone/water/methanol) lacking the test compound was applied. A zero indicates no apparent effect. Each score is a composite representing the mode value for three replicate plants.

tomato plants = assay: In vivo phytotoxic activity, foliar spray, tomato; set-up: key: +: indicating presence of a plant growth regulatory effect as compared to a control to which a solvent mixture (acetone/water/methanol) lacking the test compound was applied; 0: A zero indicates no apparent effect; conditions: foliar spray 2200 g/Ha, seven days after application
Procedure: as §1, §2

bean plants = assay: In vivo phytotoxic activity, foliar spray, bean; set-up: key: +: indicating presence of a plant growth regulatory effect as compared to a control to which a solvent mixture (acetone/water/methanol) lacking the test compound was applied; 0: A zero indicates no apparent effect; conditions: foliar spray 2200 g/Ha, seven days after application
Procedure: as §1, §2

lettuce plants = assay: In vivo phytotoxic activity, foliar spray, lettuce; set-up: key: +: indicating presence of a plant growth regulatory effect as compared to a control to which a solvent mixture (acetone/water/methanol) lacking the test compound was applied; 0: A zero indicates no apparent effect; conditions: foliar spray 2200 g/Ha, seven days after application
Procedure: as §1, §2

strawberry plants = assay: In vivo phytotoxic activity, foliar spray, strawberry; set-up: key: +: indicating presence of a plant growth regulatory effect as compared to a control to which a solvent mixture (acetone/water/methanol) lacking the test compound was applied; 0: A zero indicates no apparent effect; conditions: foliar spray 2200 g/Ha, seven days after application
Procedure: as §1, §2

Botrytis cinerea [4] = assay: microbe, parasite or virus in culture; assay type: cell-based; conditions: 72 h, 3 days at room temperature, read-out: BOC percent inhibition of fungal growth
Cercospora beticola = assay: microbe, parasite or virus in culture; assay type: cell-based; conditions: 72 h, 3 days at room temperature, read-out: CER percent inhibition of fungal growth
[5] = system: Colletotrichum lagenarium; assay: microbe, parasite or virus in culture; assay type: cell-based; conditions: Colletotrichum orbiculare, 72 h, 3 days at room temperature, read-out: COL percent inhibition of fungal growth
Monilinia fructicol = assay: microbe, parasite or virus in culture; assay type: cell-based; conditions: 72 h, 3 days at room temperature, read-out: MON percent inhibition of fungal growth
Phytophthora capsici = assay: microbe, parasite or virus in culture; assay type: cell-based; conditions: 72 h, 3 days at room temperature, read-out: PHY percent inhibition of fungal growth
Piricularia oryzae = assay: organism not typed; assay type: cell-based; conditions: 72 h, read-out: PIR percent inhibition of fungal growth
[6] = system: Pseudocercosporella herpotrichoides; assay: microbe, parasite or virus in culture; assay type: cell-based; conditions: Oculimacula yallundae, 72 h, 3 days at room temperature, read-out: PSH percent inhibition of fungal growth
Pythium ultimum [7] = assay: microbe, parasite or virus in culture; assay type: cell-based; conditions: Globisporangium ultimum, 72 h, 3 days at room temperature, read-out: PYU percent inhibition of fungal growth
Rhizoctonia solani = assay: microbe, parasite or virus in culture; assay type: cell-based; conditions: 72 h, 3 days at room temperature, read-out: RHI percent inhibition of fungal growth
Fusarium roseum = assay: microbe, parasite or virus in culture; assay type: cell-based; conditions: Fusarium sambucinum, 72 h, read-out: FUS percent inhibition of fungal growth

| Structure (SMILES) | IC50 (Pythium ultimum [1]) | IC50 at 168 h [2] | IC50 (Botrytis cinerea [3]) | MIC (Venturia inaequalis) | other results |
| --- | --- | --- | --- | --- | --- |
| CON=Cc1cccc(C(=O)NC(C)(C)C(=O)CCl)c1 [Example 2, 3-(3'-Methoxyiminomethylbenzamido)-1-chloro-3-methylbutan-2-one] | 1.61 µg/mL (≈ 5.43 µM) | 4.94 µg/mL (≈ 16.6 µM) | 71.3 µg/mL (≈ 240 µM) | 12.5 µg/mL (≈ 42.1 µM) | – |
| CCC(C)(NC(=O)c1ccc(C=NOC)c(Cl)c1)C(=O)CCl (stereo not drawn) [Example 16, N-[3'-(1'-chloro-3'-methyl-2'-oxopentan)]-3-chloro-4-methoxyiminomethylbenzamide] | 0.58 µg/mL (≈ 1.68 µM) | 11.3 µg/mL (≈ 32.8 µM) | 12.6 µg/mL (≈ 36.5 µM) | 6.25 µg/mL (≈ 18.1 µM) | – |
| CCC(C)(NC(=O)c1cccc(C=NOC)c1)C(=O)CCl (stereo not drawn) [Example 1, 3-(3'-Methoxyiminomethylbenzamido)-1-chloro-3-methylpentan-2-one] | 0.31 µg/mL (≈ 0.997 µM) | 1.86 µg/mL (≈ 5.98 µM) | 9.5 µg/mL (≈ 30.6 µM) | 1.56 µg/mL (≈ 5.02 µM) | phytotoxicity score, Cucumber (cucumber plants): 0; phytotoxicity score, Tomato (tomato plants): 0; phytotoxicity score, Bean (bean plants): 0; phytotoxicity score, Lettuce (lettuce plants): 0; phytotoxicity score, Strawberry (strawberry plants): + |
| CCC(C)(NC(=O)c1cc(Cl)c(C=NOC)c(Cl)c1)C(=O)CCl (stereo not drawn) [Example 20, N-[3'-(1'-chloro-3'-methyl-2'-oxopentan)]-3,5-dichloro-4-methoxyiminobenzamide] | 0.23 µg/mL (≈ 0.606 µM) | 1 µg/mL (≈ 2.63 µM) | – | – | – |
| CCC(C)(NC(=O)c1cc(Cl)cc(C=NOC)c1)C(=O)CCl (stereo not drawn) [Example 9, N-[3'-(1'-chloro-3'-methyl-2'-oxopentan)]-3-chloro-5-methoxyiminomethylbenzamide] | 0.05 µg/mL (≈ 0.145 µM) | 0.06 µg/mL (≈ 0.174 µM) | 0.25 µg/mL (≈ 0.724 µM) | 0.05 µg/mL (≈ 0.145 µM) | inhibition at 25 ppm (Botrytis cinerea [4]): 90%; inhibition at 25 ppm (Cercospora beticola): 100%; inhibition at 25 ppm [5]: 90%; inhibition at 25 ppm (Monilinia fructicol): 100%; inhibition at 25 ppm (Phytophthora capsici): 100%; inhibition at 25 ppm (Piricularia oryzae): 100%; inhibition at 25 ppm [6]: 100%; inhibition at 25 ppm (Pythium ultimum [7]): 100%; inhibition at 25 ppm (Rhizoctonia solani): 90%; inhibition at 25 ppm (Fusarium roseum): 75% |
| CCC(C)(NC(=O)c1cccc(C=NOCC(=O)OC)c1)C(=O)CCl (stereo not drawn) [Example 7] | 22.8 µg/mL (≈ 61.8 µM) | 9.48 µg/mL (≈ 25.7 µM) | > 100 µg/mL | > 25 µg/mL | – |
| CCC(C)(NC(=O)c1cccc(C(C)=NOC)c1)C(=O)CCl (stereo not drawn) [Example 17] | 24.2 µg/mL (≈ 74.5 µM) | – | 97.3 µg/mL (≈ 300 µM) | > 25 µg/mL | – |
| CCON=Cc1cccc(C(=O)NC(C)(CC)C(=O)CCl)c1 (stereo not drawn) [Example 3] | 2.07 µg/mL (≈ 6.37 µM) | 5.35 µg/mL (≈ 16.5 µM) | 21.8 µg/mL (≈ 67.1 µM) | 6.25 µg/mL (≈ 19.2 µM) | – |
| CCC(C)(NC(=O)c1ccc(C(C)=NOC)cc1)C(=O)CCl (stereo not drawn) [Example 19, 3-(4'-Methoxyiminomethyl(methyl)benzamido)-1-chloro-3-methylpentan-2-one] | > 10 µg/mL | – | > 100 µg/mL | > 25 µg/mL | – |
| CCON=Cc1cccc(C(=O)NC(C)(CC)C(=O)C(Cl)Cl)c1 (stereo not drawn) [Example 4] | 68.4 µg/mL (≈ 190 µM) | – | 68.9 µg/mL (≈ 192 µM) | > 25 µg/mL | – |
| CCC(C)(NC(=O)c1cccc(C=NOC(C)(C)C)c1)C(=O)CCl (stereo not drawn) [Example 8] | 173 µg/mL (≈ 489 µM) | 46.8 µg/mL (≈ 133 µM) | > 100 µg/mL | > 25 µg/mL | – |
| CCC(C)(NC(=O)c1cc(C)cc(C=NO)c1)C(=O)CCl (stereo not drawn) [Example 18] | 5.95 µg/mL (≈ 19.1 µM) | – | 53.9 µg/mL (≈ 173 µM) | > 25 µg/mL | – |
| CCC(C)(NC(=O)c1cccc(C=NOC)c1)C(=O)CSC#N (stereo not drawn) [Example 13, N-[3'-(1'-thiocyano-3'-methyl-2'oxopentan)]-3-methoxyiminomethylbenzamide] | 7.38 µg/mL (≈ 22.1 µM) | > 20 µg/mL | – | – | – |
| CCC(C)(NC(=O)c1cccc(C=NOC)c1)C(=O)C(Cl)Cl (stereo not drawn) [Example 5, 3-(3'-Methoxyiminomethylbenzamido)-1,1-dichloro-3-methylpentan-2-one] | 16.3 µg/mL (≈ 47.2 µM) | – | 54.6 µg/mL (≈ 158 µM) | > 25 µg/mL | – |
| CCC(C)(NC(=O)c1ccc(Cl)c(C=NOC)c1)C(=O)CCl (stereo not drawn) [Example 14, N-[3'-(1'-chloro-3'-methyl-2'-oxopentan)]-4-chloro-3-methoxyiminomethylbenzamide] | 4.68 µg/mL (≈ 13.6 µM) | 1.25 µg/mL (≈ 3.62 µM) | 28.1 µg/mL (≈ 81.4 µM) | 25 µg/mL (≈ 72.4 µM) | – |
| CCC(C)(NC(=O)c1cc(C=NOC)cc(C=NOC)c1)C(=O)CCl (stereo not drawn) [Example 15, N-[3'-(1'-chloro-3'-methyl-2'-oxopentan)]-3,5-dimethoxyiminomethylbenzamide] | 4.16 µg/mL (≈ 11.3 µM) | 2.33 µg/mL (≈ 6.33 µM) | 4.19 µg/mL (≈ 11.4 µM) | 1.56 µg/mL (≈ 4.24 µM) | – |
| CCC(C)(NC(=O)c1ccc(C=NOC)cc1)C(=O)CCl (stereo not drawn) [Example 10, 3-(4'-Methoxyiminomethylbenzamido)-1-chloro-3-methylpentan-2-one] | 1.57 µg/mL (≈ 5.05 µM) | 21.7 µg/mL (≈ 69.8 µM) | – | – | – |
